Data published in ChEMBL document CHEMBL6078622, “Enhancing outer membrane permeability of tetracycline antibiotics in P. aeruginosa using TOB-CIP conjugates” (RSC Med Chem, 2024).

How the values were obtained:
Type in all cases: functional
Pseudomonas aeruginosa [1] = experiment: Synergistic antibacterial activity against Pseudomonas aeruginosa PA200 in presence of eravacycline by checkerboard assay
Pseudomonas aeruginosa [2] = experiment: Synergistic antibacterial activity against Pseudomonas aeruginosa PA101243 in presence of eravacycline by checkerboard assay
Acinetobacter baumannii = experiment: Antibacterial activity against Acinetobacter baumannii ATCC 17978 assessed as inhibition of visible bacterial growth by CLSI based broth-microdilution method
Pseudomonas aeruginosa [3] = experiment: Synergistic antibacterial activity against Pseudomonas aeruginosa PA259 assessed as fractional inhibitory concentration index in presence of tigecycline by checkerboard assay
Pseudomonas aeruginosa [4] = experiment: Synergistic antibacterial activity against Pseudomonas aeruginosa PA101243 assessed as fractional inhibitory concentration index in presence of tigecycline by checkerboard assay
Pseudomonas aeruginosa [5] = experiment: Synergistic antibacterial activity against Pseudomonas aeruginosa PA259 assessed as fractional inhibitory concentration index in presence of eravacycline by checkerboard assay
Pseudomonas aeruginosa [6] = experiment: Antibacterial activity against Pseudomonas aeruginosa PA259 assessed as inhibition of visible bacterial growth by CLSI based broth-microdilution method
Pseudomonas aeruginosa [7] = experiment: Synergistic antibacterial activity against Pseudomonas aeruginosa PA200 assessed as fold change in tigecycline MIC by CLSI based broth-microdilution method relative to tigecycline alone
Pseudomonas aeruginosa [8] = experiment: Synergistic antibacterial activity against Pseudomonas aeruginosa PA262 assessed as fractional inhibitory concentration index in presence of doxycycline by checkerboard assay
Pseudomonas aeruginosa [9] = experiment: Antibacterial activity against Pseudomonas aeruginosa PA264 assessed as inhibition of visible bacterial growth by CLSI based broth-microdilution method
Pseudomonas aeruginosa [10] = experiment: Synergistic antibacterial activity against Pseudomonas aeruginosa PA259 assessed as fold change in eravacycline MIC by CLSI based broth-microdilution method relative to eravacycline alone
HepG2 = experiment: Cytotoxicity against human HepG2 cells assessed as inhibition of cell vitality at 162 uM; design: scale not given: the % may be the effect or the level left
Pseudomonas aeruginosa [11] = experiment: Antibacterial activity against Pseudomonas aeruginosa PA095 assessed as tigecycline MIC by CLSI based broth-microdilution method
Pseudomonas aeruginosa [12] = experiment: Antibacterial activity against Pseudomonas aeruginosa PAO1 assessed as inhibition of bacterial growth by measuring fold change in MIC in presence of 10 % fetal bovine serum by CLSI protocol based assay
Pseudomonas aeruginosa [13] = experiment: Synergistic antibacterial activity against Pseudomonas aeruginosa PA095 in presence of doxycycline by checkerboard assay
Pseudomonas aeruginosa [14] = experiment: Synergistic antibacterial activity against Pseudomonas aeruginosa PA095 in presence of minocycline by checkerboard assay
Pseudomonas aeruginosa [15] = experiment: Antibacterial activity against Pseudomonas aeruginosa PA101243 assessed as minocycline MIC by CLSI based broth-microdilution method
Pseudomonas aeruginosa [16] = experiment: Antibacterial activity against Pseudomonas aeruginosa PA101243 assessed as doxycycline MIC by CLSI based broth-microdilution method

MIC (Pseudomonas aeruginosa [1]): 8 µg/mL
MIC (Pseudomonas aeruginosa [2]): 8 µg/mL
MIC (Acinetobacter baumannii): > 128 µg/mL
MIC (Pseudomonas aeruginosa [6]): > 128 µg/mL
MIC (Pseudomonas aeruginosa [9]): > 128 µg/mL
MIC (Pseudomonas aeruginosa [11]): 2 µg/mL
MIC (Pseudomonas aeruginosa [13]): 2 µg/mL
MIC (Pseudomonas aeruginosa [14]): 2 µg/mL
MIC (Pseudomonas aeruginosa [15]): 2 µg/mL
MIC (Pseudomonas aeruginosa [16]): 1 µg/mL
SMILES: Cl.Cl.Cl.Cl.Cl.Cl.NC[C@H]1O[C@H](O[C@H]2[C@H](OCCCCCCCCCCCCNC(=O)c3cn(C4CC4)c4cc(N5CCNCC5)c(F)cc4c3=O)[C@@H](O[C@H]3O[C@H](CO)[C@@H](O)[C@H](N)[C@H]3O)[C@H](N)C[C@@H]2N)[C@H](N)C[C@@H]1O
fractional inhibitory concentration index (FICI) (Pseudomonas aeruginosa [3]): 0.002
fractional inhibitory concentration index (FICI) (Pseudomonas aeruginosa [4]): 0.125
fractional inhibitory concentration index (FICI) (Pseudomonas aeruginosa [5]): 0.008
fold change (FC) (Pseudomonas aeruginosa [7]): 16
fractional inhibitory concentration index (FICI) (Pseudomonas aeruginosa [8]): 0.002
fold change (FC) (Pseudomonas aeruginosa [10]): 512
Activity (HepG2): 40%
fold change (FC) (Pseudomonas aeruginosa [12]): >512
